# According to publication PMC8286840, “Identifying SARS-CoV-2 antiviral compounds by screening for small molecule inhibitors of Nsp3 papain-like protease” (Biochemical Journal, 2021):
# Counter-ions that a name gives are not always drawn. Like-named read-outs stand apart in the source and are kept apart here.
# Legend:
# [1] = molecular target: T1, SARS-CoV-2 PLpro (nsp3 1564–1878) (Severe acute respiratory syndrome coronavirus 2, UniProt P0DTD1); assay: biochemical; design: FRET-quenched peptide (Pro3) cleavage by PLpro, 10 min pre-incubation, slope over 20 min, normalised to no-compound control; settings: read-out: % of control remaining
# [2] = molecular target: T1, SARS-CoV-2 PLpro (nsp3 1564–1878); assay: biochemical; design: FRET-quenched peptide (Pro3) cleavage by PLpro, 10 min pre-incubation, slope over 20 min, normalised to no-compound control; settings: read-out: % of control remaining; remark: listed apart in the source
compound,measurement,setting,value
COc1cc2nc(N3CCN(C(=O)C4COc5ccccc5O4)CC3)nc(N)c2cc1OC (stereo not shown) [Doxazosin],remaining activity at 3.75 µM,"[1]; Well no.=1988, high concentration screen",104%
same,remaining activity at 1.25 µM,"[2]; Well no.=1988, low concentration screen",103%
C[C@@H]1O[C@@H](O[C@H]2C[C@@H](O)[C@]3(CO)[C@H]4[C@H](O)C[C@]5(C)[C@@H](C6COC(=O)C6)CC[C@]5(O)[C@@H]4CC[C@]3(O)C2)[C@H](O)[C@H](O)[C@H]1O (stereo partly shown) [Dihydroouabain],remaining activity at 3.75 µM,"[1]; Well no.=539, high concentration screen",93.8%
same,remaining activity at 1.25 µM,"[2]; Well no.=539, low concentration screen",91.5%
Nc1c(O)cccc1C(=O)O [3-Hydroxyanthranilic acid],remaining activity at 3.75 µM,"[1]; Well no.=6535, high concentration screen",91.9%
same,remaining activity at 1.25 µM,"[2]; Well no.=6535, low concentration screen",102%
COC(=O)N[C@H](C(=O)N[C@@H](Cc1ccccc1)[C@@H](O)CN(Cc1ccc(-c2ccccn2)cc1)NC(=O)[C@@H](NC(=O)OC)C(C)(C)C)C(C)(C)C [Atazanavir],remaining activity at 3.75 µM,"[1]; Well no.=1918, high concentration screen",95.7%
same,remaining activity at 1.25 µM,"[2]; Well no.=1918, low concentration screen",97.5%
CC12CCC(CC1)C(C)(C)O2 [Eucalyptol],remaining activity at 3.75 µM,"[1]; Well no.=6874, high concentration screen",99.2%
same,remaining activity at 1.25 µM,"[2]; Well no.=6874, low concentration screen",99.2%
N[C@@H](Cc1c[nH]cn1)C(=O)O [L-Histidine hydrochloride],remaining activity at 3.75 µM,"[1]; Well no.=422, high concentration screen",94.7%
same,remaining activity at 1.25 µM,"[2]; Well no.=422, low concentration screen",92.7%
CCN1C[C@]2(COC)CC[C@H](OC)[C@@]34C1[C@]1(OCO[C@@]15C[C@H](OC)[C@H]1C[C@@H]3[C@@H]5[C@H]1OC)[C@@H](O)[C@H]24 [Delcorine],remaining activity at 3.75 µM,"[1]; Well no.=3109, high concentration screen",101%
same,remaining activity at 1.25 µM,"[2]; Well no.=3109, low concentration screen",98.2%
O=C1CCC(c2ccccc2)(C2CCN(Cc3ccccc3)CC2)C(=O)N1 (stereo not shown) [Benzetimide (hydrochloride)],remaining activity at 3.75 µM,[1],97.6%
same,remaining activity at 1.25 µM,[2],99.9%
CCCCN1CCCCC1C(=O)Nc1c(C)cccc1C (stereo not shown) [Bupivacaine],remaining activity at 3.75 µM,"[1]; Well no.=2052, high concentration screen",103%
same,remaining activity at 1.25 µM,"[2]; Well no.=2052, low concentration screen",105%
Cc1cnc(NC(=O)C2=C(O)c3ccccc3S(=O)(=O)N2C)s1 [Meloxicam sodium],remaining activity at 3.75 µM,"[1]; Well no.=974, high concentration screen",99.2%
same,remaining activity at 1.25 µM,"[2]; Well no.=974, low concentration screen",98.2%
OC[C@@H]1[C@@H](O)[C@H](O)[C@H]2[C@@H](O)CCN21,remaining activity at 3.75 µM,"[1]; Well no.=3085, high concentration screen",105%
same,remaining activity at 1.25 µM,"[2]; Well no.=3085, low concentration screen",104%
O=C(O)c1cc(N(Cc2ccccc2O)Cc2ccccc2O)ccc1O [Lavendustin B],remaining activity at 3.75 µM,"[1]; Well no.=3807, high concentration screen",98%
same,remaining activity at 1.25 µM,"[2]; Well no.=3807, low concentration screen",95.8%
CCC1(C2=NCCN2)Cc2ccccc2O1 (stereo not shown) [Efaroxan hydrochloride],remaining activity at 3.75 µM,"[1]; Well no.=603, high concentration screen",96.2%
same,remaining activity at 1.25 µM,"[2]; Well no.=603, low concentration screen",97.3%
"CN1CCc2cc(O)cc3c2[C@H]1Cc1ccc(O)c(O)c1-3 [R(-)-2,10,11-Trihydroxyaporphine hybrobromide]",remaining activity at 3.75 µM,"[1]; Well no.=588, high concentration screen",100%
same,remaining activity at 1.25 µM,"[2]; Well no.=588, low concentration screen",104%
CCc1cc(/C(C)=N/OCc2ccc(C3CCCCC3)c(C(F)(F)F)c2)ccc1CN1CC(C(=O)O)C1 [Siponimod],remaining activity at 3.75 µM,"[1]; Well no.=6669, high concentration screen",93.3%
same,remaining activity at 1.25 µM,"[2]; Well no.=6669, low concentration screen",97.7%
COC(=O)[C@H](CC(C)C)NC(=O)c1ccc(NC[C@@H](N)CS)cc1-c1cccc2ccccc12 [GGTI298],remaining activity at 3.75 µM,"[1]; Well no.=8076, high concentration screen",101%
same,remaining activity at 1.25 µM,"[2]; Well no.=8076, low concentration screen",106%
CCCCC(=O)O[C@H]1CC[C@H]2[C@@H]3CCc4cc(O)ccc4[C@H]3CC[C@]12C [Estradiol valerate],remaining activity at 3.75 µM,"[1]; Well no.=5365, high concentration screen",99.5%
same,remaining activity at 1.25 µM,"[2]; Well no.=5365, low concentration screen",95.5%
CC[C@@H]([C@H](C)O)n1ncn(-c2ccc(N3CCN(c4ccc(OC[C@@H]5CO[C@@](Cn6cncn6)(c6ccc(F)cc6F)C5)cc4)CC3)cc2)c1=O [Posaconazole],remaining activity at 3.75 µM,"[1]; Well no.=4763, high concentration screen",92.9%
same,remaining activity at 1.25 µM,"[2]; Well no.=4763, low concentration screen",93.6%
CCN1CCN(C(c2ccc(C(F)(F)F)cc2)c2ccc3cccnc3c2O)CC1 (stereo not shown) [ML311],remaining activity at 3.75 µM,"[1]; Well no.=6532, high concentration screen",99.6%
same,remaining activity at 1.25 µM,"[2]; Well no.=6532, low concentration screen",99.7%
"Cc1nc(C(=O)N2CCC[C@H]2Cc2nnc(-c3ccccc3)o2)c(-c2ccccc2F)s1 [2-[((2S)-1-{[5-(2-fluorophenyl)-2-methyl-1,3-thiazol-4-yl]carbonyl}-2-pyrrolidinyl)methyl]-5-phenyl-1,3,4-oxadiazole]",remaining activity at 3.75 µM,"[1]; Well no.=5406, high concentration screen",102%
same,remaining activity at 1.25 µM,"[2]; Well no.=5406, low concentration screen",90.5%
CN[C@H](CC(C)C)C(=O)N[C@H]1C(=O)N[C@@H](CC(N)=O)C(=O)N[C@H]2C(=O)N[C@H]3C(=O)N[C@H](C(=O)N[C@H](C(=O)O)c4cc(O)cc(O)c4-c4cc3ccc4O)[C@H](O)c3ccc(c(Cl)c3)Oc3cc2cc(c3O[C@@H]2O[C@H](CO)[C@@H](O)[C@H](O)[C@H]2O[C@H]2C[C@](C)(N)[C@H](O)[C@H](C)O2)Oc2ccc(cc2Cl)[C@H]1O [Vancomycin (hydrochloride)],remaining activity at 3.75 µM,"[1]; Well no.=7882, high concentration screen",98.3%
same,remaining activity at 1.25 µM,"[2]; Well no.=7882, low concentration screen",103%
CCCCN1CCCC[C@H]1C(=O)Nc1c(C)cccc1C [Levobupivacaine hydrochloride],remaining activity at 3.75 µM,"[1]; Well no.=6043, high concentration screen",105%
same,remaining activity at 1.25 µM,"[2]; Well no.=6043, low concentration screen",98.8%
C=C[C@H]1CN2CC[C@H]1C[C@H]2[C@H](O)c1ccnc2ccc(OC)cc12 [Quinine sulfate],remaining activity at 3.75 µM,"[1]; Well no.=1459, high concentration screen",100%
same,remaining activity at 1.25 µM,"[2]; Well no.=1459, low concentration screen",98.4%
COc1ccc(CNC(=O)c2sc3nc(C)cc(C)c3c2N)cc1 [VU0152100],remaining activity at 3.75 µM,"[1]; Well no.=5931, high concentration screen",98.2%
same,remaining activity at 3.75 µM,"[1]; Well no.=7293, high concentration screen",88.9%
same,remaining activity at 1.25 µM,"[2]; Well no.=5931, low concentration screen",95.9%
same,remaining activity at 1.25 µM,"[2]; Well no.=7293, low concentration screen",91.9%
NC(=O)CN1CC(O)CC1=O (stereo not shown) [Oxiracetam],remaining activity at 3.75 µM,"[1]; Well no.=1040, high concentration screen",97.5%
same,remaining activity at 1.25 µM,"[2]; Well no.=1040, low concentration screen",91.2%
CCCc1c(OCCCCc2nnn[nH]2)ccc(C(C)=O)c1O [LY-171883],remaining activity at 3.75 µM,"[1]; Well no.=4522, high concentration screen",102%
same,remaining activity at 1.25 µM,"[2]; Well no.=4522, low concentration screen",98%
CCCCN1CCC(n2c(=O)[nH]c3ccccc32)CC1 [NS 521 oxalate],remaining activity at 3.75 µM,"[1]; Well no.=1003, high concentration screen",105%
same,remaining activity at 1.25 µM,"[2]; Well no.=1003, low concentration screen",99.3%
C[N+](C)(C)CCOP(=O)([O-])OC[C@H](O)CO [sn-Glycero-3-phosphocholine],remaining activity at 3.75 µM,"[1]; Well no.=7303, high concentration screen",106%
same,remaining activity at 1.25 µM,"[2]; Well no.=7303, low concentration screen",106%
"CCCCCCCCCCC/C=C\C/C=C\CCCC(=O)O [Eicosa-5,8-dienoic acid (20:2 n-12)]",remaining activity at 3.75 µM,"[1]; Well no.=4309, high concentration screen",106%
same,remaining activity at 1.25 µM,"[2]; Well no.=4309, low concentration screen",102%
CCCC(C)(COC(N)=O)COC(=O)NC(C)C (stereo not shown) [Carisoprodol],remaining activity at 3.75 µM,"[1]; Well no.=380, high concentration screen",95.3%
same,remaining activity at 1.25 µM,"[2]; Well no.=380, low concentration screen",95.8%
Oc1ccccc1O [Pyrocatechol],remaining activity at 3.75 µM,"[1]; Well no.=190, high concentration screen",98%
same,remaining activity at 1.25 µM,"[2]; Well no.=190, low concentration screen",101%
CCCCN1CCC(COC(=O)c2cc(Cl)c(N)c3c2OCCO3)CC1 [SB 204070 hydrochloride],remaining activity at 3.75 µM,"[1]; Well no.=1170, high concentration screen",99.4%
same,remaining activity at 1.25 µM,"[2]; Well no.=1170, low concentration screen",97.3%
OC[C@H]1O[C@@H](O[C@@H]2[C@@H](CO)OC(O)(CO)[C@H]2O)[C@H](O)[C@@H](O)[C@H]1O (mixture of isomers) [Lactulose],remaining activity at 3.75 µM,"[1]; Well no.=8140, high concentration screen",97.6%
same,remaining activity at 1.25 µM,"[2]; Well no.=8140, low concentration screen",95.7%
COc1nc(OCc2cccc(-c3ccccc3)c2C)ccc1CNCCN [N-deacetylated BMS-202],remaining activity at 3.75 µM,"[1]; Well no.=8458, high concentration screen",100%
same,remaining activity at 1.25 µM,"[2]; Well no.=8458, low concentration screen",102%
